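Each compound was tested at five concentrations against cells in 96-well plates for 48 hours. At the TGI there is no net growth.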
What was measured:
Assay in all cases: growth of human tumour cells (NCI), 48 h
MCF7 breast = test system: MCF7 breast
ACHN renal = test system: ACHN renal
HCT-15 colon = test system: HCT-15 colon
SW-620 colon = test system: SW-620 colon
RXF 393 renal = test system: RXF 393 renal
LOX IMVI melanoma = test system: LOX IMVI melanoma
SK-MEL-2 melanoma = test system: SK-MEL-2 melanoma
HOP-92 NSCLC = test system: HOP-92 NSCLC
HOP-62 NSCLC = test system: HOP-62 NSCLC
SF-268 CNS = test system: SF-268 CNS
SF-295 CNS = test system: SF-295 CNS
NCI-H226 lung = test system: NCI-H226 lung
RPMI-8226 leukemia = test system: RPMI-8226 leukemia
SK-MEL-5 melanoma = test system: SK-MEL-5 melanoma
NCI-H23 lung = test system: NCI-H23 lung
MDA-N = test system: MDA-N
U251 CNS = test system: U251 CNS
MDA-MB-435 = test system: MDA-MB-435
M14 melanoma = test system: M14 melanoma
MDA-MB-231 breast = test system: MDA-MB-231 breast
OVCAR-4 ovarian = test system: OVCAR-4 ovarian
NCI-H522 lung = test system: NCI-H522 lung
UACC-62 melanoma = test system: UACC-62 melanoma
PC-3 prostate = test system: PC-3 prostate
786-0 renal = test system: 786-0 renal
OVCAR-3 ovarian = test system: OVCAR-3 ovarian
SNB-19 CNS = test system: SNB-19 CNS
OVCAR-5 ovarian = test system: OVCAR-5 ovarian
SNB-75 CNS = test system: SNB-75 CNS
SK-OV-3 ovarian = test system: SK-OV-3 ovarian
TK-10 renal = test system: TK-10 renal
K-562 leukemia = test system: K-562 leukemia
MALME-3M melanoma = test system: MALME-3M melanoma
HCT-116 colon = test system: HCT-116 colon
SK-MEL-28 melanoma = test system: SK-MEL-28 melanoma
SF-539 CNS = test system: SF-539 CNS
SR leukemia = test system: SR leukemia
UO-31 renal = test system: UO-31 renal
CAKI-1 renal = test system: CAKI-1 renal
BT-549 breast = test system: BT-549 breast
OVCAR-8 ovarian = test system: OVCAR-8 ovarian
T-47D breast = test system: T-47D breast
COLO 205 colon = test system: COLO 205 colon
NCI/ADR-RES ovarian = test system: NCI/ADR-RES ovarian
KM12 colon = test system: KM12 colon
A549 NSCLC = test system: A549 NSCLC
IGROV1 ovarian = test system: IGROV1 ovarian
MOLT-4 leukemia = test system: MOLT-4 leukemia
HS 578T breast = test system: HS 578T breast
UACC-257 melanoma = test system: UACC-257 melanoma
EKVX NSCLC = test system: EKVX NSCLC
NCI-H460 lung = test system: NCI-H460 lung
A498 renal = test system: A498 renal
SN12C renal = test system: SN12C renal
HT29 colon = test system: HT29 colon
HL-60(TB) leukemia = test system: HL-60(TB) leukemia
CCRF-CEM leukemia = test system: CCRF-CEM leukemia
HCC-2998 colon = test system: HCC-2998 colon

c1ccc(CNCCN2CCNCC2)nc1
TGI (MCF7 breast): > 100000 nM
TGI (ACHN renal): > 100000 nM
TGI (HCT-15 colon): > 100000 nM
TGI (SW-620 colon): > 100000 nM
TGI (RXF 393 renal): > 100000 nM
TGI (LOX IMVI melanoma): > 100000 nM
TGI (SK-MEL-2 melanoma): > 100000 nM
TGI (HOP-92 NSCLC): > 100000 nM
TGI (HOP-62 NSCLC): > 100000 nM
TGI (SF-268 CNS): > 100000 nM
TGI (SF-295 CNS): > 100000 nM
TGI (NCI-H226 lung): > 100000 nM
TGI (RPMI-8226 leukemia): > 100000 nM
TGI (SK-MEL-5 melanoma): > 100000 nM
TGI (NCI-H23 lung): > 100000 nM
TGI (MDA-N): > 100000 nM
TGI (U251 CNS): > 100000 nM
TGI (MDA-MB-435): > 100000 nM
TGI (M14 melanoma): > 100000 nM
TGI (MDA-MB-231 breast): > 100000 nM
TGI (OVCAR-4 ovarian): > 100000 nM
TGI (NCI-H522 lung): > 100000 nM
TGI (UACC-62 melanoma): > 100000 nM
TGI (PC-3 prostate): > 100000 nM
TGI (786-0 renal): > 100000 nM
TGI (OVCAR-3 ovarian): > 100000 nM
TGI (SNB-19 CNS): > 100000 nM
TGI (OVCAR-5 ovarian): > 100000 nM
TGI (SNB-75 CNS): > 100000 nM
TGI (SK-OV-3 ovarian): > 100000 nM
TGI (TK-10 renal): > 100000 nM
TGI (K-562 leukemia): > 100000 nM
TGI (MALME-3M melanoma): > 100000 nM
TGI (HCT-116 colon): > 100000 nM
TGI (SK-MEL-28 melanoma): > 100000 nM
TGI (SF-539 CNS): > 100000 nM
TGI (SR leukemia): > 100000 nM
TGI (UO-31 renal): > 100000 nM
TGI (CAKI-1 renal): > 100000 nM
TGI (BT-549 breast): > 100000 nM
TGI (OVCAR-8 ovarian): > 100000 nM
TGI (T-47D breast): > 100000 nM
TGI (COLO 205 colon): > 100000 nM
TGI (NCI/ADR-RES ovarian): > 100000 nM
TGI (KM12 colon): > 100000 nM
TGI (A549 NSCLC): > 100000 nM
TGI (IGROV1 ovarian): > 100000 nM
TGI (MOLT-4 leukemia): > 100000 nM
TGI (HS 578T breast): > 100000 nM
TGI (UACC-257 melanoma): > 100000 nM
TGI (EKVX NSCLC): > 100000 nM
TGI (NCI-H460 lung): > 100000 nM
TGI (A498 renal): > 100000 nM
TGI (SN12C renal): > 100000 nM
TGI (HT29 colon): > 100000 nM

CN(C)CCn1nc2c3c(c(C(=O)NCCCN(C)CCCNC(=O)c4ccc5c6c(nn5CCN(C)C)-c5ccccc5Nc46)ccc31)Nc1ccccc1-2
TGI (MCF7 breast): 582 nM
TGI (ACHN renal): 6260 nM
TGI (HCT-15 colon): 16600 nM
TGI (SW-620 colon): 3490 nM
TGI (RXF 393 renal): 1450 nM
TGI (LOX IMVI melanoma): 1280 nM
TGI (SK-MEL-2 melanoma): 243 nM
TGI (HOP-62 NSCLC): 574 nM
TGI (SF-268 CNS): 549 nM
TGI (SF-295 CNS): 2080 nM
TGI (NCI-H226 lung): 217 nM
TGI (RPMI-8226 leukemia): 1370 nM
TGI (SK-MEL-5 melanoma): 1460 nM
TGI (NCI-H23 lung): 617 nM
TGI (MDA-N): 318 nM
TGI (HL-60(TB) leukemia): 944 nM
TGI (U251 CNS): 452 nM
TGI (MDA-MB-435): 415 nM
TGI (M14 melanoma): 1580 nM
TGI (MDA-MB-231 breast): 518 nM
TGI (CCRF-CEM leukemia): 2630 nM
TGI (OVCAR-4 ovarian): 658 nM
TGI (NCI-H522 lung): 117 nM
TGI (UACC-62 melanoma): 424 nM
TGI (PC-3 prostate): 834 nM
TGI (786-0 renal): 1280 nM
TGI (SNB-19 CNS): 748 nM
TGI (OVCAR-5 ovarian): 751 nM
TGI (SNB-75 CNS): 272 nM
TGI (SK-OV-3 ovarian): 407 nM
TGI (TK-10 renal): 3320 nM
TGI (K-562 leukemia): 1890 nM
TGI (MALME-3M melanoma): 280 nM
TGI (HCT-116 colon): 525 nM
TGI (SK-MEL-28 melanoma): 1150 nM
TGI (SF-539 CNS): 2190 nM
TGI (SR leukemia): 1200 nM
TGI (HCC-2998 colon): 245 nM
TGI (UO-31 renal): 3220 nM
TGI (CAKI-1 renal): 3300 nM
TGI (BT-549 breast): 1650 nM
TGI (OVCAR-8 ovarian): 2970 nM
TGI (T-47D breast): 10500 nM
TGI (COLO 205 colon): 227 nM
TGI (NCI/ADR-RES ovarian): > 71200 nM
TGI (KM12 colon): 1330 nM
TGI (A549 NSCLC): 332 nM
TGI (IGROV1 ovarian): 15600 nM
TGI (MOLT-4 leukemia): 1580 nM
TGI (HS 578T breast): 1860 nM
TGI (UACC-257 melanoma): 1090 nM
TGI (EKVX NSCLC): 505 nM
TGI (NCI-H460 lung): 432 nM
TGI (A498 renal): 623 nM
TGI (SN12C renal): 708 nM
TGI (HT29 colon): 561 nM

Source: PubChem BioAssay (NCI)
